Assay [1] has as its target T1, zfERβ2 (Danio rerio, UniProt Q7ZU32). Conditions: for agonistic activity on zfERβ2 (in words): HELN-zfERβ2; for EC50: read-out: zfERβ2 EC50.
For assay [2], the target named is T2, zfERβ1 (Danio rerio, UniProt Q5PR29). Conditions: for agonistic activity on zfERβ1 (in words): HELN-zfERβ1; for EC50: read-out: zfERβ1 EC50.
The target of assay [3] is T3, zfERα (Danio rerio, UniProt P57717).
T3 sequence (P57717 1-569): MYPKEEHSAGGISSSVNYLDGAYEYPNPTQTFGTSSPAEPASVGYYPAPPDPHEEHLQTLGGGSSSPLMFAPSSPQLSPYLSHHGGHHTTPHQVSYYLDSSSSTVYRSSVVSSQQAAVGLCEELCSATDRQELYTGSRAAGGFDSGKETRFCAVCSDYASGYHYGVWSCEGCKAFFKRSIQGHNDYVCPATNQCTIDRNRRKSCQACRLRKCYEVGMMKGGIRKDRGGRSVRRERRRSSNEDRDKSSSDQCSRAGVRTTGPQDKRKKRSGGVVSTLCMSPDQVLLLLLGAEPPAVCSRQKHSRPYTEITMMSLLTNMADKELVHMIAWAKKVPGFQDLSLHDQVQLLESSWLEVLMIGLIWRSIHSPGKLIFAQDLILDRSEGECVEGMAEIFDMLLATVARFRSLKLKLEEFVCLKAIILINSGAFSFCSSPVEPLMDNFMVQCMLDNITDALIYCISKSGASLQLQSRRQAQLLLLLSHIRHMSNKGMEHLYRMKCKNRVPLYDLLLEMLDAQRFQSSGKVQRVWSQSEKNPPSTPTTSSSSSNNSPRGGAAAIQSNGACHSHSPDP
Description: HELN-zfERα transcriptional inhibition. Type of assay: cell-based, zebrafish.

Assay [4] concerns the target T2, zfERβ1. Type of assay: cell-based, zebrafish. Conditions: HELN-zfERβ1.
Assay [5] has as its target T1, zfERβ2. Kind of assay: HELN-zfERβ2 transcriptional inhibition. Type of assay: cell-based, zebrafish.
In assay [6] the target is T3, zfERα. Kind of assay: HELN-zfERα luciferase transactivation assay. Conditions: for potency profile among zfER subtypes: Supplementary Fig. 2A and data not shown.
In another assay the target is T4, hERα (Homo sapiens, UniProt P03372).
T4 sequence (P03372 1-595): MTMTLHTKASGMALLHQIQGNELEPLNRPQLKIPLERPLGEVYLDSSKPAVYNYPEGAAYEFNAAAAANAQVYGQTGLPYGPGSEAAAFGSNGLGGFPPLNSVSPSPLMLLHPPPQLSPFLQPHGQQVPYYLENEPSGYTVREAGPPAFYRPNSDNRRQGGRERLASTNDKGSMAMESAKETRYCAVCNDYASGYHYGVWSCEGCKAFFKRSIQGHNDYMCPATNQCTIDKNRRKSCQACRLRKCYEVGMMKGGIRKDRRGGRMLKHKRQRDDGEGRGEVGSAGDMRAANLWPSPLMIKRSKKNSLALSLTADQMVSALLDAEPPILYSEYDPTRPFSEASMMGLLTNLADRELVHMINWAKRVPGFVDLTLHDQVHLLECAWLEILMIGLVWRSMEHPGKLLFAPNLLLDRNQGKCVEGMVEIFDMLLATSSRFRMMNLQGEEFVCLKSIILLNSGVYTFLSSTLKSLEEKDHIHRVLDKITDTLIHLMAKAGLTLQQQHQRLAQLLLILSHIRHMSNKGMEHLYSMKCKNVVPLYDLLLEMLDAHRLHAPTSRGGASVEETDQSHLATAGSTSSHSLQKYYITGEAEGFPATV
The following applies: HELN-hERα compared to hERβ, ref Escande et al., 2006, cited from earlier work.

Assay [7] has as its target T1, zfERβ2. Description: cell-based. The following applies: zfERβ2 EC50, HELN-zfERβ2, 28 °C.
Assay [8] deals with T3, zfERα. The following applies: zebrafish liver-derived cell lines; ref Cosnefroy et al. (2012); cited from earlier work.
Assay [9] has as its target T2, zfERβ1. Kind of assay: cell-based. Conditions: zfERβ1 EC50, HELN-zfERβ1, 28 °C.
Another assay deals with 5×ERE:GFP reporter. The following applies: 5×ERE:GFP zebrafish larvae, cited from earlier work; for tissue of GFP expression: ref Gorelik et al., 2014.

The values below come from paper PMC8740820 (Toxicology and applied pharmacology, 2014).

In general, EC50 refers to the concentration giving half of the maximal effect. For orientation: IC50 means the concentration that gives 50% inhibition.

Like-named read-outs stand apart in the source and are kept apart here.

Take `CC(C)(C)CC(C)(C)c1ccc(O)cc1` [4-Tert-octylphenol, 4-tert-octylphenol]: at zfERβ2 [1], the “agonistic activity on zfERβ2 (in words)” value is reported as “partial agonists”. Further, the “agonistic activity on zfERβ1 (in words)” value on zfERβ1 [2] is “full agonists”.
With `CCC(=C(c1ccc(O)cc1)c1ccc(OCCN(C)C)cc1)c1ccccc1` [4OH-tamoxifen, 1-[p-dimethylaminoethoxyphenyl]-1-(4-hydroxyphenyl)-2-phenyl-1-butene], the “agonistic activity on zfERβ2 (in words)” value on zfERβ2 [1] was “No agonistic activity”. Moreover, at zfERβ1 [2], the “agonistic activity on zfERβ1 (in words)” value is “No agonistic activity”. Further, the “antagonistic activity on zfERα (in words)” value at zfERα [3] was “full antagonistic activity”. In addition, the “antagonistic activity on zfERβ1 (in words)” value on zfERβ1 [4] is on record as “full antagonistic activity”. The “antagonistic activity on zfERβ2 (in words)” value at zfERβ2 [5] is recorded as “full antagonistic activity”. Further, the “agonistic activity on zfERα (in words)” value on zfERα [6] is “No agonistic activity”.
Take `C[C@]12CC[C@@H]3c4ccc(O)cc4CC[C@H]3[C@@H]1C[C@H]1OC(=O)C[C@]12O` [16α-LE2, 3,17-Dihydroxy-19-nor-17α-pregna-1,3,5(10)-triene-21,16α-lactone]: at zfERα [6] (transactivation, 28 °C), the “fold higher potency zfERα compared to zfERβ1” value is “approximately 429 fold” and the “fold higher potency zfERα compared to zfERβ2” value is around 115 fold. The “fold potency/selectivity in reporter gene activation hERα over hERβ” value at hERα was “over 1000 fold”. Moreover, the “fold potency/selectivity in reporter gene activation hERα over hERβ” value at hERα (listed as 16α-E2) is given as 1000 fold.
For the molecule `O=C(c1ccc(O)cc1O)c1ccc(O)cc1O` [BP2, 2,2′,4,4′-tetrahydroxybenzophenone], the “agonistic activity on zfERβ2 (in words)” value on zfERβ2 [1] is on record as “full agonist”. Further, the “fold higher potency zfERβ2 compared to zfERβ1” value on zfERβ2 [1] (transactivation, 28 °C) is on record as 3 fold. Further, the “agonistic activity on zfERβ1 (in words)” value on zfERβ1 [2] is given as “full agonist”. Further, the EC50 on zfERβ2 [7] was around 233 nM; on zfERα [6] (zfERα EC50, HELN-zfERα, 28 °C), around 251 nM; on zfERβ1 [9], around 0.803 µM. Besides, the “fold higher potency zfERα compared to zfERβ1” value at zfERα [8] was around 2 fold; on zfERα [6] (transactivation, 28 °C) it was 3 fold. Further, the “fold higher potency zfERα compared to zfERβ2” value on zfERα [8] is reported as “approximately 1.36 fold”. On zfERα [6] (HELN-zfERα), the “agonistic activity on zfERα (in words)” value is “full agonist”.
In the case of `CC(C)(c1ccc(O)cc1)c1ccc(O)cc1` [BPA, bisphenol A], the “tissue of GFP expression” value in the assay on 5×ERE:GFP reporter is reported as “preferentially induced GFP expression in the heart valves”. The “agonistic activity on zfERβ2 (in words)” value at zfERβ2 [1] was “partial agonist”. Further, on zfERβ1 [2], the “agonistic activity on zfERβ1 (in words)” value is listed as “partial agonist”. On zfERα [6] (HELN-zfERα), the “agonistic activity on zfERα (in words)” value is listed as “partial agonist”. At zfERβ1 [9] (text value in μM), this molecule yielded an EC50 of 1.89 µM.
As to `N#CC(Cc1ccc(O)cc1)c1ccc(O)cc1` (centres unmarked) [DPN, 2,3-bis(4-hydroxyphenyl)-propionitrile], in the assay with 5×ERE:GFP reporter, the “tissue of GFP expression” value is given as “preferentially induced GFP expression in the heart valves”.
`C[C@]12CC[C@@H]3c4ccc(O)cc4CC[C@H]3[C@@H]1CCC2=O` [E1, 1,3,5[10]-estratriene-3-ol-17-one] gave an EC50 on zfERβ2 [7] of 12.1 nM.
In the case of `C#C[C@]1(O)CC[C@H]2[C@@H]3CCc4cc(O)ccc4[C@H]3CC[C@@]21C` [EE2, 17α-ethynyl-1,3,5[10]-estratriene-3,17β-diol], the EC50 at zfERβ2 [1] (HELN-zfERβ2, 28 °C) is around 0.031 nM; at zfERβ2 [1] (HELN-zfERβ2, 37 °C), around 0.197 nM; at zfERβ1 [2] (HELN-zfERβ1, 37 °C), 0.673 nM; on zfERα [6] (read-out: zfERα EC50, HELN-zfERα, 31 °C), 0.127 nM; at zfERα [6] (read-out: zfERα EC50, HELN-zfERα, 34 °C), 0.19 nM; at zfERα [6] (read-out: zfERα EC50, HELN-zfERα, 37 °C), 0.947 nM.
On to `O=c1c(-c2ccc(O)cc2)coc2cc(O)cc(O)c12` [Genistein, 40,5,7-trihydroxyisoflavone], for which, in the assay on 5×ERE:GFP reporter, the “tissue of GFP expression” value is listed as “preferentially induced GFP expression in the heart valves”.
Consider `C[C@]12CC[C@@H]3c4ccc(O)cc4C[C@@H](CCCCCCCCC[S+]([O-])CCCC(F)(F)C(F)(F)F)[C@H]3[C@@H]1CC[C@@H]2O` (stereo partly drawn) [ICI 182,780, 7α,17β-[9[(4,4,5,5,5-pentafluoropentyl)sulfinyl]nonyl]estra-1,3,5(10)-triene-3,17-diol], for which, in the assay on 5×ERE:GFP reporter (ref Gorelik and Halpern., 2011), the “effect on E2-induced fluorescence in liver” value is on record as “reduce the E2-induced fluorescence in liver”. Besides, at zfERβ2 [1], the “agonistic activity on zfERβ2 (in words)” value is “No agonistic activity”. The “agonistic activity on zfERβ1 (in words)” value at zfERβ1 [2] is recorded as “No agonistic activity”. For the same molecule, the “antagonistic activity on zfERα (in words)” value at zfERα [3] is recorded as “full antagonistic activity”. Moreover, on zfERα [3] (read-out: zfERα IC50, together with 1 nM E2, 28 °C), the IC50 was 3 nM. For the same molecule, the “antagonistic activity on zfERβ1 (in words)” value on zfERβ1 [4] is given as “full antagonistic activity”. Besides, the “antagonistic activity on zfERβ2 (in words)” value at zfERβ2 [5] was “full antagonistic activity”. Further, the “agonistic activity on zfERα (in words)” value at zfERα [6] (HELN-zfERα) is given as “No agonistic activity”.
For `O=C1C[C@@H](c2ccc(O)cc2)Oc2cc(O)ccc21` [Liquiritigenin, liquiritigenin], the “agonistic activity on zfERβ1 (in words)” value at zfERβ1 [2] is reported as “did not activate zfERβ1 at all”. Besides, at zfERα [6] (read-out: zfERα EC50, HELN-zfERα, 28 °C), the concentration for a half-maximal effect (EC50) was found to be 563 nM.
`Cc1c(-c2ccc(O)cc2)nn(-c2ccc(O)cc2)c1-c1ccc(OCCN2CCCCC2)cc1.Cl.Cl` [MPP, 1,3-bis (4-hydroxyphenyl)-4-methyl-5-[4-(2-piperidinylethoxy)phenol]-1H-pyrazole dihydrochloride]: on zfERβ1 [4], the “antagonistic activity on zfERβ1 (in words)” value is recorded as “slight zfERβ1 selectivity”.
As to `C[C@H]1CCCC(=O)CCCCCc2cc(O)cc(O)c2C(=O)O1` [zearalanone], the “potency profile among zfER subtypes” value at zfERα [6] is recorded as “zfERα potency > zfERβ1 potency ≥ β2 potency”.
Take `C[C@H]1CCCC(=O)CCC/C=C/c2cc(O)cc(O)c2C(=O)O1` [zearalenone]: the “potency profile among zfER subtypes” value at zfERα [6] was “zfERα potency > zfERβ1 potency ≥ β2 potency”.
With `C[C@H]1CCC[C@H](O)CCCCCc2cc(O)cc(O)c2C(=O)O1` [α-Zearalanol, α-zearalanol], the half-maximal effective concentration (EC50) on zfERβ1 [2] (HELN-zfERβ1, 28 °C) was found to be 0.71 nM.
As to `C[C@H]1CCC[C@H](O)CCC/C=C/c2cc(O)cc(O)c2C(=O)O1` [α-Zearalenol, α-zearalenol], the “potency profile among zfER subtypes” value at zfERα [6] is given as “zfERα potency > zfERβ1 potency ≥ β2 potency”.
Same read-out and setting: with `C[C@H]1CCC[C@@H](O)CCCCCc2cc(O)cc(O)c2C(=O)O1` [β-zearalanol] the entry was “zfERα potency > zfERβ1 potency ≥ β2 potency”.
As to `C[C@H]1CCC[C@@H](O)CCC/C=C/c2cc(O)cc(O)c2C(=O)O1` [β-zearalenol], the “potency profile among zfER subtypes” value at zfERα [6] is “zfERα potency > zfERβ1 potency ≥ β2 potency”.
